Measured values reported in patent publication US6967205B1, “Compounds with antibacterial and antiparasitic properties” (New Pharma Research Sweden AB, priority 1999, dated 2005).
≈ marks a conversion by molar mass, not a printed value.

Columns and labels:
[1] = test system: Bacillus cereus; assay: M.I.C. by broth dilution method (NCCLS 1988), gram-positive bacteria; assay type: cell-based; settings: in vitro broth dilution
Summary of the method: (§1)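 MIC values were obtained by broth dilution following NCCLS 1988 against gram-positive strains including Bacillus subtilus ATCC 6633, Streptococcus faecium and Staphylococcus ATCC 6538. Enrofloxacin served as reference. Compound stocks were 1 000 μg/ml in aqueous KOH or KOH/DMF.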

[2] = test system: Bacillus subtilus (ATCC 6633); assay: as above; assay type: cell-based; settings: ATCC6633, in vitro broth dilution
Summary of the method: as §1

[3] = test system: Micrococcus Luteus (ATCC 9341); assay: as above; assay type: cell-based; settings: ATCC9341, in vitro broth dilution, read-out: M.I.C. values Microc. Luteus
Summary of the method: as §1

[4] = test system: Staph. aureus (ATCC 29737); assay: as above; assay type: cell-based; settings: Staphylococcus aureus, ATCC29737, in vitro broth dilution
Summary of the method: as §1

[5] = test system: Staph. epidermidis (ATCC 12228); assay: as above; assay type: cell-based; settings: Staphylococcus epidermidis, ATCC12228, in vitro broth dilution
Summary of the method: as §1

[6] = test system: Staphylococcus (ATCC 6538); assay: as above; assay type: cell-based; settings: ATCC6538, in vitro broth dilution, read-out: M.I.C. values Staph. (ATCC 6538)
Summary of the method: as §1

[7] = test system: Streptococcus faecium; assay: as above; assay type: cell-based; settings: Enterococcus faecium, in vitro broth dilution, read-out: M.I.C. values Streptoc. faecium
Summary of the method: as §1

[8] = test system: gram-negative bacteria (E. coli, KL. Pnemonia, Bordetella bronchiseptic, Salmonella typhi, Salmonella spp., Proteus spp., Pasterulla Duck, Pasterulla Camel); assay: M.I.C. by broth dilution method, gram-negative bacteria; assay type: cell-based; settings: eleven gram-negative strains
Procedure: (§2) The antibacterial activity of the present compounds was investigated by in vitro evaluation of their M.I.C. (Minimum Inhibitory Concentration) values. The evaluation was conducted in complete accordance with the “Broth dilution method”, as outlined by the U.S. National Committee for Clinical Laboratory Standards “NCCLS 1988”.
(§3) Solutions of the present compounds were prepared by dissolving 0.01 g of a test compound in either 10% KOH (aq) or a 10% KOH/DMF mixture, after which sterile, distilled H2O was added up to a total volume of 10 ml, thereby yielding a test compound concentration of 1 000 μg/ml.
In the same manner as above, the M.I.C. values of the present compounds JA 3, JA 5, JA 12, JA 42, JA 73 and enrofloxacin as reference compound were investigated also on gram-negative bacteria. The gram-negative bacteria used were E. coli (ATCC 25922), E. Coli (ATCC 8739), E. Coli (ATCC 10536), E. Coli Pathogenic, KL. Pnemonia (ATCC 10031), Bordetella bronchiseptic (ATCC 4617), Salmonella typhi, Salmonella spp., Proteus spp., Pasterulla Duck and Pasterulla Camel.

[9] = test system: M. gallisepticum; assay: M.I.C. against Mycoplasma in microtitre plates (Tanner and Wu); assay type: cell-based; settings: Mycoplasmoides gallisepticum; in vitro, microtitre plates
Procedure: The M.I.C. values of the compounds JA 1, JA 3, JA 5, JA 12, JA 42 and JA 43 were determined in vitro against M. gallisepticum. Enrofloxacin, tylosin and oxytetracyclin were used as reference compounds. The tested compounds were all stored and applied as solutions in distilled water. The M.I.C. evaluation was performed in microtitre plates, and the methodology employed was basically that of Tanner and Wu (Avian Disease, 36:714-717 (1992)).

[10] = test system: Eimeria acervulina, E. maxima, E. necatrix, E. tenella and E. brunetti; assay: Prophylactic anticoccidial activity in chickens of Habbared X breed (5 Eimeria strains); assay type: in vivo
Procedure: The anticoccidial activity of the present compounds as prophylactic agents was evaluated in vivo on […] one day old (1 day after hatch) chickens of Habbared X breed. The chickens were divided into four groups of 20 birds each, and each group was located in a separate pen (1 m×1 m). The chickens were then fed with unmedicated food up to day 7 after hatch. Fresh water was supplied ad libitum .
On day 8 after hatch, the four groups were fed as follows (1 ppm=1 mg drug/kg feed): • Group #1: feed containing JA 39 (100 ppm); • Group #2: feed containing JA 42 (100 ppm); • Group #3: feed containing Coxistac (60 ppm), a known anticoccidial agent (see U.S. Pat. No. 3,857,948);
Group #4: feed containing no drug (control group).
The chickens were fed as above on day 8 and 9 after hatch. On day 10 after hatch, each chicken was infected orally by 6 000-7 000 oocysts containing a mixture of 5 mature sporulated strains, namely Eimeria acervulina, E. maxima, E. necatrix, E. tenella and E. brunetti. The groups #1-3 received drug as above from day 10 to 21 after hatch.
From day 14 to 21 after hatch, fresh fecal droplets were collected and examined daily. The average number of oocysts/g faeces was then calculated in accordance with the so-called Mc-Master technique (Soulsby, E. J., Helminths, Arthropods & Protozoa of domesticated animals, p. 789, 6th Ed., Williams & Wilkins Co. Baltimore (USA), Tindall & Cassell Ltd., London, 1968). The final weight of and mean total amount of feed consumed by each bird were also examined, and the results are summarized in Table 8 hereinbelow.

[11] = test system: E. mitis, E. hagani, E. praecox, E. acervulina, E. maxima, E. necatrix, E. tenella and E. brunetti; assay: Prophylactic anticoccidial effect in chickens of Arbor Aker breed (8 Eimeria strains); assay type: in vivo; settings: 100 ppm in feed from day 3, infected day 7
Procedure: JA 12, JA 39 and JA 42 was also evaluated in chickens of Arbor Aker breed. These trials were conducted by using basically the same test protocol as that used for the chickens of Habbared X breed, albeit with the following modifications:
• i) On day 3 after hatch, the tested groups of chickens received feed containing 100 ppm of JA 12, JA 39, JA 42 or Coxistac (60 ppm); • ii) On day 7 after hatch, the chickens were infected orally by oocysts containing a mixture of 8 mature sporulated strains, namely E. mitis, E. hagani, E. praecox, E. acervulina, E. maxima, E. necatrix, E. tenella and E. brunetti.

[12] = test system: E. mitis, E. hagani, E. praecox, E. acervulina, E. maxima, E. necatrix, E. tenella and E. brunetti; assay: Prophylactic anticoccidial effect, additional trials in chickens of Habbared X breed (8 Eimeria strains); assay type: in vivo; settings: B700 100 ppm
Procedure: In yet another evaluation of the prophylactic anticoccidial effect of the present compounds, additional trials on chickens of Habbared X breed were performed. The same test protocol as the one previously employed for this breed of chickens was used, albeit with the following following modifications: • i) On day 8 after hatch, the chickens received feed containing B700 (100 ppm), JA 3 (200 ppm) or Coxistac (100 ppm); • ii) On day 11 after hatch, the chickens were infected orally by oocysts containing a mixture of 8 mature sporulated strains, namely E. mitis, E. hagani, E. praecox, E. acervulina, E. maxima, E. necatrix, E. tenella and E. brunetti. The results of this evaluation were slightly unexpected.

[13] = test system: gram-positive bacteria; assay: Antibacterial activity against gram-positive bacteria, overall comparison with enrofloxacin; assay type: cell-based; settings: seven gram-positive strains of Table 6
Procedure: as §2, §3
In this evaluation, the antibacterial activity of the present compounds and enrofloxacin as reference compound was tested against seven strains of gram-positive bacteria, namely Bacillus subtilus (ATCC 6633), Bacillus cereus, Streptococcus faecium, Micrococcus Luteus (ATCC 9341), Staph. aureus (ATCC 29737), Staph. epidermidis (ATCC 12228) and Staphylococcus (ATCC 6538).

SMILES | MIC [1] | MIC [2] | MIC [3] | MIC [4] | MIC [5] | MIC [6] | MIC [7] | antibacterial activity against gram-negative bacteria compared to that of enrofloxacin [8] | MIC [9] | prophylactic anticoccidial effect (in words) [11] | also measured
O=C(O)c1cn(C2CC2)c2cc(N3CCN(c4cccc(Cl)n4)CC3)c(F)cc2c1=O [JA 42, 7-[4-(6-chloro-2-pyridinyl)-1-piperazinyl]-1-cyclopropyl-6-fluoro-4-oxo-1,4-dihydro-3-quinolinecarboxylic acid] | 0.06 µg/mL (≈ 0.135 µM) | 0.01 µg/mL (≈ 0.0226 µM) | 1 µg/mL (≈ 2.26 µM) | 0.03 µg/mL (≈ 0.0677 µM) | 0.008 µg/mL (≈ 0.0181 µM) | 0.06 µg/mL (≈ 0.135 µM) | 0.25 µg/mL (≈ 0.564 µM) | roughly equal to that of enrofloxacin | 0.25 µg/mL (≈ 0.564 µM) | essentially the same as those reported for the trials with the chickens of Habbared X breed | anticoccidial effect (in words) ([10]; chickens of Habbared X breed, 100 ppm in feed): excellent anticoccidial effect; Average number of Eimeria spp. oocysts/g faeces, day after hatch 14 ([10]; day 14 after hatch, drug in feed (JA 39, JA 42 100 ppm; Coxistac 60 ppm), infected day 10): 0.0 oocysts/g faeces; Average number of Eimeria spp. oocysts/g faeces, day after hatch 15 ([10]; day 15 after hatch, drug in feed (JA 39, JA 42 100 ppm; Coxistac 60 ppm), infected day 10): 4000 oocysts/g faeces; Average number of Eimeria spp. oocysts/g faeces, day after hatch 16 ([10]; day 16 after hatch, drug in feed (JA 39, JA 42 100 ppm; Coxistac 60 ppm), infected day 10): 6000 oocysts/g faeces; Average number of Eimeria spp. oocysts/g faeces, day after hatch 17 ([10]; day 17 after hatch, drug in feed (JA 39, JA 42 100 ppm; Coxistac 60 ppm), infected day 10): 3000 oocysts/g faeces; Average number of Eimeria spp. oocysts/g faeces, day after hatch 18 ([10]; day 18 after hatch, drug in feed (JA 39, JA 42 100 ppm; Coxistac 60 ppm), infected day 10): 0.0 oocysts/g faeces; Average number of Eimeria spp. oocysts/g faeces, day after hatch 19 ([10]; day 19 after hatch, drug in feed (JA 39, JA 42 100 ppm; Coxistac 60 ppm), infected day 10): 0.0 oocysts/g faeces; Average number of Eimeria spp. oocysts/g faeces, day after hatch 21 ([10]; day 21 after hatch, drug in feed (JA 39, JA 42 100 ppm; Coxistac 60 ppm), infected day 10): 0.0 oocysts/g faeces; Mean body weight ([10]; final weight, infected chickens, drug in feed (JA 39, JA 42 100 ppm; Coxistac 60 ppm)): 73.7 g; Mean amount of feed consumed ([10]; mean total feed per bird, infected chickens, drug in feed (JA 39, JA 42 100 ppm; Coxistac 60 ppm)): 91 g; Average number of Eimeria spp. oocysts/g faeces, Total ([10]; total of days 14-21 after hatch, drug in feed (JA 39, JA 42 100 ppm; Coxistac 60 ppm)): 13000 oocysts/g faeces
O=C(O)c1cn(C2CC2)c2cc(N3CCN(S(=O)(=O)c4ccc([N+](=O)[O-])cc4)CC3)c(F)cc2c1=O [JA 3, 1-cyclopropyl-6-fluoro-7-{4-[(4-nitrophenyl)sulfonyl]-1-piperazinyl}-4-oxo-1,4-dihydro-3-quinolinecarboxylic acid] | 0.06 µg/mL (≈ 0.116 µM) | 0.06 µg/mL (≈ 0.116 µM) | 1 µg/mL (≈ 1.94 µM) | 0.06 µg/mL (≈ 0.116 µM) | 0.01 µg/mL (≈ 0.0194 µM) | 0.06 µg/mL (≈ 0.116 µM) | 0.25 µg/mL (≈ 0.484 µM) | roughly equal to that of enrofloxacin | 0.06 µg/mL (≈ 0.116 µM) |  | anticoccidial activity (in words) ([12]; JA 3 200 ppm in feed from day 8, infected day 11): significant anticoccidial activity; increased body weight gain as compared to the Coxistac treated group ([12]; JA 3 200 ppm, Coxistac 100 ppm): approximately 10%; total number of oocysts during the treatment compared to Coxistac group ([12]; JA 3 200 ppm, Coxistac 100 ppm): higher than for the group treated with Coxistac
O=C(O)c1cn(C2CC2)c2cc(NCC3CCCO3)c(F)cc2c1=O (centres unmarked) [JA 73, 1-cyclopropyl-6-fluoro-4-oxo-7-[(tetrahydro-2-furanylmethyl)amino]-1,4-dihydro-3-quinolinecarboxylic acid] | 0.06 µg/mL (≈ 0.173 µM) | 0.12 µg/mL (≈ 0.346 µM) | 2 µg/mL (≈ 5.77 µM) | 0.12 µg/mL (≈ 0.346 µM) | 0.12 µg/mL (≈ 0.346 µM) | 0.06 µg/mL (≈ 0.173 µM) | 0.5 µg/mL (≈ 1.44 µM) | roughly equal to that of enrofloxacin |  |  | 
COc1ccc(S(=O)(=O)N2CCN(c3cc4c(cc3F)c(=O)c(C(=O)O)cn4C3CC3)CC2)cc1 [JA 4, 1-cyclopropyl-6-fluoro-7-{4-[(4-methoxyphenyl)sulfonyl]-1-piperazinyl}-4-oxo-1,4-dihydro-3-quinolinecarboxylic acid] | 0.01 µg/mL (≈ 0.0199 µM) | 0.01 µg/mL (≈ 0.0199 µM) | 0.25 µg/mL (≈ 0.498 µM) | 0.06 µg/mL (≈ 0.12 µM) | 0.03 µg/mL (≈ 0.0598 µM) | 0.01 µg/mL (≈ 0.0199 µM) | 0.06 µg/mL (≈ 0.12 µM) |  |  |  | antibacterial activity against gram-positive bacteria compared to that of enrofloxacin [13]: clearly superior
O=C(O)c1cn(C2CC2)c2cc(N3CCN(S(=O)(=O)C(F)(F)F)CC3)c(F)cc2c1=O [JA 12, 1-cyclopropyl-6-fluoro-4-oxo-7-{4-[(trifluoromethyl)sulfonyl]-1-piperazinyl}-1,4-dihydro-3-quinolinecarboxylic acid] | 0.06 µg/mL (≈ 0.129 µM) | 0.12 µg/mL (≈ 0.259 µM) | 0.5 µg/mL (≈ 1.08 µM) | 0.12 µg/mL (≈ 0.259 µM) | 0.12 µg/mL (≈ 0.259 µM) | 0.03 µg/mL (≈ 0.0647 µM) | 1 µg/mL (≈ 2.16 µM) | roughly equal to that of enrofloxacin | 0.12 µg/mL (≈ 0.259 µM) | very similar to that of JA 39 | 
O=C(O)c1cn(C2CC2)c2cc(N3CCN(S(=O)(=O)c4ccc5ccccc5c4)CC3)c(F)cc2c1=O [JA 5, 1-cyclopropyl-6-fluoro-7-[4-(2-naphthylsulfonyl)-1-piperazinyl]-4-oxo-1,4-dihydro-3-quinolinecarboxylic acid] | 0.03 µg/mL (≈ 0.0575 µM) | 0.008 µg/mL (≈ 0.0153 µM) | 0.5 µg/mL (≈ 0.959 µM) | 0.06 µg/mL (≈ 0.115 µM) | 0.01 µg/mL (≈ 0.0192 µM) | 0.06 µg/mL (≈ 0.115 µM) | 0.12 µg/mL (≈ 0.23 µM) | roughly equal to that of enrofloxacin | 0.12 µg/mL (≈ 0.23 µM) |  | 
